Measured values from the NIST ThermoML archive (doi:10.1016/j.jct.2009.05.009).
Numbers after ± are expanded uncertainties.

Assay: xn = mol fraction of the nth substance listed
Conditions: 101.3 kPa, Liquid, Vibrating tube method

Structure (SMILES): CCCC[N+]1(C)CCCC1.O=S(=O)([N-]S(=O)(=O)C(F)(F)F)C(F)(F)F + O
- mass density (298.21 K, x2 = 0): 1395.3 ± 2.6 kg/m3
- mass density (298.21 K, x2 = 0.0435): 1394 ± 2.5 kg/m3
- mass density (298.21 K, x2 = 0.0654): 1393.2 ± 2.5 kg/m3
- mass density (298.21 K, x2 = 0.086): 1392.3 ± 2.5 kg/m3
- mass density (298.21 K, x2 = 0.0913): 1392.1 ± 2.5 kg/m3
- mass density (298.21 K, x2 = 0.1262): 1390.7 ± 2.4 kg/m3
- mass density (298.21 K, x2 = 0.1396): 1390.1 ± 2.4 kg/m3
- mass density (298.21 K, x2 = 0.1909): 1388.1 ± 2.3 kg/m3
- mass density (298.21 K, x2 = 0.2228): 1387.1 ± 2.3 kg/m3
- mass density (323.21 K, x2 = 0): 1373.6 ± 2.5 kg/m3
- mass density (323.21 K, x2 = 0.0298): 1372.5 ± 2.5 kg/m3
- mass density (323.21 K, x2 = 0.0673): 1371.1 ± 2.5 kg/m3
- mass density (323.21 K, x2 = 0.1012): 1369.9 ± 2.4 kg/m3
- mass density (323.21 K, x2 = 0.1406): 1368.3 ± 2.4 kg/m3
- mass density (323.21 K, x2 = 0.2033): 1365.3 ± 2.3 kg/m3

Structure (SMILES): CCCC[n+]1ccn(C)c1.O=S(=O)([N-]S(=O)(=O)C(F)(F)F)C(F)(F)F + O
- mass density (298.2 K, x2 = 0): 1437.1 ± 2.6 kg/m3
- mass density (298.2 K, x2 = 0.0308): 1435.7 ± 2.6 kg/m3
- mass density (298.2 K, x2 = 0.0753): 1434 ± 2.5 kg/m3
- mass density (298.2 K, x2 = 0.1194): 1432.2 ± 2.5 kg/m3
- mass density (298.2 K, x2 = 0.1731): 1430 ± 2.4 kg/m3
- mass density (298.2 K, x2 = 0.2391): 1426.7 ± 2.3 kg/m3
- mass density (323.21 K, x2 = 0): 1413.8 ± 2.6 kg/m3
- mass density (323.21 K, x2 = 0.0482): 1411.8 ± 2.5 kg/m3
- mass density (323.21 K, x2 = 0.0816): 1410.5 ± 2.5 kg/m3
- mass density (323.21 K, x2 = 0.119): 1408.8 ± 2.4 kg/m3
- mass density (323.21 K, x2 = 0.1597): 1407.1 ± 2.4 kg/m3
- mass density (323.21 K, x2 = 0.2141): 1404.5 ± 2.3 kg/m3
- mass density (323.21 K, x2 = 0.2583): 1402 ± 2.3 kg/m3

Structure (SMILES): CCn1cc[n+](C)c1.O=S(=O)([N-]S(=O)(=O)C(F)(F)F)C(F)(F)F + O
- mass density (298.19 K, x2 = 0): 1519.3 ± 2.8 kg/m3
- mass density (298.19 K, x2 = 0.0209): 1518.3 ± 2.8 kg/m3
- mass density (298.19 K, x2 = 0.0499): 1516.9 ± 2.7 kg/m3
- mass density (298.19 K, x2 = 0.0631): 1516.2 ± 2.7 kg/m3
- mass density (298.19 K, x2 = 0.1205): 1513 ± 2.6 kg/m3
- mass density (298.19 K, x2 = 0.1608): 1510.7 ± 2.5 kg/m3
- mass density (298.19 K, x2 = 0.2032): 1508.1 ± 2.5 kg/m3
- mass density (298.19 K, x2 = 0.3025): 1501.3 ± 2.3 kg/m3
- mass density (323.17 K, x2 = 0): 1494.7 ± 2.7 kg/m3
- mass density (323.17 K, x2 = 0.0353): 1493.1 ± 2.7 kg/m3
- mass density (323.17 K, x2 = 0.0581): 1492 ± 2.7 kg/m3
- mass density (323.17 K, x2 = 0.0834): 1490.6 ± 2.6 kg/m3
- mass density (323.17 K, x2 = 0.1164): 1488.7 ± 2.6 kg/m3
- mass density (323.17 K, x2 = 0.1611): 1486.2 ± 2.5 kg/m3
- mass density (323.17 K, x2 = 0.2221): 1482.4 ± 2.4 kg/m3

Structure (SMILES): CCCCn1cc[n+](C)c1.F[P-](F)(F)(F)(F)F [1-butyl-3-methylimidazolium hexafluorophosphate] + O
- mass density (298.15 K, x2 = 0): 1368.3 ± 2 kg/m3
- mass density (298.15 K, x2 = 0.0431): 1366.5 ± 2.1 kg/m3
- mass density (298.15 K, x2 = 0.0982): 1363.5 ± 2.1 kg/m3
- mass density (298.15 K, x2 = 0.1222): 1362.1 ± 2.1 kg/m3
- mass density (298.15 K, x2 = 0.1566): 1360.1 ± 2.1 kg/m3
- mass density (298.15 K, x2 = 0.1873): 1358.5 ± 2.1 kg/m3
- mass density (298.15 K, x2 = 0.2548): 1355.5 ± 2 kg/m3
- mass density (298.15 K, x2 = 0.2971): 1354.1 ± 2 kg/m3
- mass density (323.15 K, x2 = 0): 1347.7 ± 2 kg/m3
- mass density (323.15 K, x2 = 0.0431): 1345.6 ± 2.1 kg/m3
- mass density (323.15 K, x2 = 0.0982): 1342.2 ± 2.1 kg/m3
- mass density (323.15 K, x2 = 0.1222): 1340.6 ± 2.1 kg/m3
- mass density (323.15 K, x2 = 0.1566): 1338.5 ± 2.1 kg/m3
- mass density (323.15 K, x2 = 0.1873): 1336.4 ± 2.1 kg/m3
- mass density (323.15 K, x2 = 0.2548): 1332.3 ± 2.1 kg/m3
- mass density (323.15 K, x2 = 0.2971): 1329.9 ± 2.1 kg/m3

Structure (SMILES): CCCCn1cc[n+](C)c1.F[B-](F)(F)F [1-butyl-3-methylimidazolium tetrafluoroborate] + O
- mass density (298.15 K, x2 = 0): 1201.1 ± 2.3 kg/m3
- mass density (298.15 K, x2 = 0.0895): 1198.3 ± 2.3 kg/m3
- mass density (298.15 K, x2 = 0.195): 1194.4 ± 2.2 kg/m3
- mass density (298.15 K, x2 = 0.308): 1189.3 ± 2.2 kg/m3
- mass density (298.15 K, x2 = 0.4996): 1177.8 ± 2.2 kg/m3
- mass density (298.15 K, x2 = 0.75): 1147.9 ± 2.7 kg/m3
- mass density (298.15 K, x2 = 0.899): 1100.7 ± 3.7 kg/m3
- mass density (303.15 K, x2 = 0): 1197.4 ± 2.3 kg/m3
- mass density (303.15 K, x2 = 0.0895): 1194.6 ± 2.3 kg/m3
- mass density (303.15 K, x2 = 0.195): 1190.9 ± 2.2 kg/m3
- mass density (303.15 K, x2 = 0.308): 1185.8 ± 2.2 kg/m3
- mass density (303.15 K, x2 = 0.4996): 1173.9 ± 2.3 kg/m3
- mass density (303.15 K, x2 = 0.75): 1143.8 ± 2.7 kg/m3
- mass density (303.15 K, x2 = 0.899): 1097.2 ± 3.7 kg/m3
- mass density (333.15 K, x2 = 0): 1175.4 ± 2.3 kg/m3
- mass density (333.15 K, x2 = 0.0895): 1172.8 ± 2.2 kg/m3
- mass density (333.15 K, x2 = 0.195): 1169 ± 2.2 kg/m3
- mass density (333.15 K, x2 = 0.308): 1163.9 ± 2.2 kg/m3
- mass density (333.15 K, x2 = 0.4996): 1151.5 ± 2.3 kg/m3
- mass density (333.15 K, x2 = 0.75): 1121 ± 2.7 kg/m3
- mass density (333.15 K, x2 = 0.899): 1076.4 ± 3.6 kg/m3
